The source of these data is patent US10485772B2, “Compositions for modulating cancer stem cells and uses therefor” (University of Canberra, priority 2014, dated 2019).

The structures appear in SMILES notation.

Type in all cases: cell-based, human
Experiment [1] concerns CD44^high/CD24^low CSC-like subpopulation of PMA-stimulated MCF-7 cells (MCF-IM model). The experiment can be described thus: FACS analysis of CD44high/CD24low CSC-like subpopulation in MCF-IM model. Particulars: MCF-IM model; for CD44 high CD24 low-CSC-like subpopulation by FACS: bisindolylmaleimide-I 100 nm and 1 μM prior to PMA for 60 hrs. As for the experimental part:
Cells from each well/flask were harvested by means of trypsin treatment followed by two washes with PBS. Washed cells then re-suspended in an antibody cocktail consisting anti-CD44-APC, anti-CD24-PE antibodies (details in Table 5) and Hoechst 33258 dye (final dilution of 1:1000) (Invitrogen, Carlsbad, Calif.) in 1% FCS-PBS solution. Cells re-suspended in antibody cocktail were incubated for 20 minutes at 4° C. Cells were next washed twice with PBS and re-suspended in 1% FCS-PBS solution (volume based on cell number) and kept on ice until analyzed by FACS. Forward scatter (FSC) and side scatter parameters were selected with FITC fluorochrome excited by 488 nm argonion laser, PE fluorochrome excited by 488 nm and Hoechst fluorochrome excited by 350 nm helium-cadmium UV laser.
Flow Cytometry data was produced using either BD FACS LSR Flow Cytometer (Becton Dickinson Biosciences) or BD FACS Aria™ II Flow Cytometer (Becton Dickinson Biosciences) and analyzed using the data acquisition software CellQuest Pro (Becton Dickinson Biosciences) and FlowJo (Tree Star Inc., Ashland, Oreg.) software at the MCRF facility, JCSMR, ANU, Canberra, Australia. Single colour controls were used to set compensation parameters. Isotype controls were used for all corresponding primary antibodies in each experiment.
The FACS gating strategy used in this thesis is adopted and modified from the pioneer breast cancer stem cell publications (Al-Hajj et al., 2003) which sorted cells based on the CD44^high and CD24^low expression. […] To confirm that anti-CD44-APC and anti-CD24-PE antibodies were specific, isotype control antibodies were used. The isotype (negative controls) used for anti-CD24-PE was PE Mouse-Anti-human IgG2aK and for anti-CD44-APC was APC-Mouse-Anti-human IgG2bK. First, all the cells were stained with Hoechst 33258 to monitor cell viability. In addition cells were stained with varying concentrations of either APC or PE isotypes controls.
(§1) The adherent human mammary adenocarcinoma MCF-7 and MDA-MB-231 cells were cultured in low glucose DMEM (Gibco) and both supplemented with 10% FCS, 2 mM L-glutamine and 0.1% PSN antibiotics. Cells were stimulated with 0.65 ng/ml of phorbol 12-myristate 13-acetate (PMA) (Sigma-Aldrich) or 20 ng/ml of TGF-β (R&D systems) for the times indicated. For Bisindolylmaleimide-I (Calbiochem) or PKC-θ peptide inhibitor (Calbiochem) studies, cells were pre-treated with 1 μM or 30 μM of inhibitor respectively for 1 h prior to stimulation in MCF-7 cells. In case of MDA-MB-231, cells were treated with 4 μM or 30 μM Bisindolylmaleimide-I or PKC-θ peptide inhibitor respectively.
To separate CSC from non-CSC (NCSC), florescence activated cell sorting (FACS) was performed on single-cell suspensions that were stained with anti-CD44-APC (559942, BD Biosciences) and anti-CD24-PE antibodies (555428, BD Biosciences) along with Hoechst 33258 to monitor cell viability. As used throughout this work, CSC are defined by minority CD44^high/CD24^low, whereas NCSC are defined by rest of the cell populations.
The adherent human mammary adenocarcinoma cell lines MCF-7 were cultured in low glucose DMEM (Gibco) and supplemented with 10% FCS, 2 mM L-glutamine, and 0.1% PSN antibiotics. Cells were stimulated with 0.65 ng/ml of phorbol 12-myristate 13-acetate (PMA) (Sigma-Aldrich) for 60 hours. FACS was performed on single-cell suspensions stained with anti-CD44-APC (559942, BD Biosciences) and anti-CD24-PE antibodies (555428, BD Biosciences), along with Hoechst 33258 (561908, BD Biosciences) to monitor cell viability as previously detailed (Zafar et al., Chromatinized PKC-theta directly regulates inducible genes in epithelial to mesenchymal transition and breast cancer stem cells. Molecular and Cellular Biology, 2014, 34:16 2961-2980). […]

For experiment [2], the system named is MCF-7 cells (mammospheres). The experiment can be described thus: Mammosphere assay in MCF-IM model. To be noted: bisindolylmaleimide-I 1 μM for 1 hr prior to PMA for 6 days. The protocol:
The following mammosphere culture media components were purchased from StemCell Technologies Inc., BC, Canada: Mammocult Basal medium (Human) (catalogue number-05621), Mammocult Proliferation Supplements (Human) (catalogue number-05622), heparin (catalogue number-07904) and hydrocortisone (catalogue number-[…]). Hydrocortisone powder was freshly dissolved into mammocult basal medium to get 10^−4M solution on the day of experiment. 50 mL of
Mammocult complete media was then prepared by addition of 45 mL Mammocult basal medium, 5 mL mammocult proliferation supplements, 100 μL of the 0.2% heparin stock, 500 μL of 10^−4M stock of hydrocortisone and 50 μL of the PNS. Mammocult complete media was either used on same day or stored for not more than 7 days at 4° C.
MCF-7 cells were grown in a 175 cm^2 cell culture flask and harvested using a cell scraper (Zellschaber, Switzerland) or FACS sorted as specified below. Importantly trypsin treatment was never used for harvesting cells as it interferes with the mammosphere assay. Harvested cells were then re-suspended in 1 mL mammocult complete media and centrifuged at 500×g for 3 minutes at 20° C. The cell pellet was then re-suspended in 1 mL mammocult complete media before counting the cells on the Vi-CELL counter. Cell dilutions were then prepared to stain 40,000 cells/2 mL and 2 mL of cells were seeded in the 6 well-ultra low adherent, flat bottom plates (Costar, Corning Inc, Corning, N.Y., USA). Cells were either stimulated or not treated according to the experimental protocol and incubated at 37° C., under 5% CO2 for 7 days in a Hepa-Filtered Infrared (IR) Incubator (Forma Scientific Inc., Materietta, Ohio). Mammospheres larger than 60 μm were counted per well on day 7 and pictures were taken with an Olympus microscope. All the mammosphere assays were performed in duplicate wells and the entire procedure was repeated at least twice.
Mammosphere culture media components were purchased from StemCell Technologies and mammosphere assays were performed as recommended by the manufacturer's guidelines. Briefly, 40,000 cells/2 ml cell dilutions were then prepared and 2 ml of cells were seeded in the 6 well-ultralow adherent, flat bottom plates (Costar). Mammospheres larger than 60 μm were counted per well on day 7 and pictures were taken.

Experiment [3] has as its system MDA-MB 231 cells. Description: Phase contrast microscopy of EMT/MET in Basal/metastatic model. Particulars: Bisindolylmaleimide 4 μM. The protocol: Phase contrast microscopy was utilized for EMT and wound healing assays under 10× or 20× magnification of Olympus Fluorescence 1X71 microscope. Images were captured and analyzed as described above except that wound healing assay pictures were also analyzed by Image J software (Free software in Public domain developed by NIH).
as §1
phase contrast microscopy was performed where cells were viewed at ×4 magnification (wound healing assay) or ×10 magnification (EMT) using an Olympus fluorescence IX71 microscope (Olympus) and images were captured using DPController software (2002 Olympus Optical Co. LTD) and analyzed using Photoshop CS3 (Adobe Systems Inc.). Scans were taken with a 10 μm scale bar.

[4] abbreviates: listed as Broad spectrum PKC pathway inhibitor.

In the case of `Cn1c2ccccc2c2c3c(c4c5ccccc5n(CCC#N)c4c21)CNC3=O` [Go6976], the “CD44 high CD24 low-CSC-like subpopulation (CSC formation) by FACS” value in experiment [1] (Go6976 1 μM prior to PMA for 60 hrs) is “did not prevent PMA-induced EMT-like morphological changes or CSC formation”.
Take `CN(C)CCCn1cc(C2=C(c3c[nH]c4ccccc34)C(=O)NC2=O)c2ccccc21` [bisindolylmaleimide-I]: the mammosphere formation entry is “reduce mammosphere formation” in experiment [2]; “inhibition of EMT and CSC formation” in experiment [2] (setting [4]). Also, the “EMT (morphology)” value was “inhibits EMT” in experiment [3]; “inhibition of EMT and CSC formation” in experiment [3] (setting [4]). The “CD44 high CD24 low-CSC-like subpopulation by FACS” value in experiment [1] was “only very high concentration of bisindolylmaleimide-I but not Go 6976 inhibits CD44 high CD24 low-CSC-like subpopulation”; in experiment [1] (setting [4]) it was “inhibition of EMT and CSC formation”.
